{"source": "patent US7563899B2", "about": "“(S)-N-methylnaltrexone” (Progenics Pharmaceuticals, Inc., priority 2005, dated 2009)", "key": {"[1]": {"test_system": "gastrointestinal transit in rats", "assay": "Gastrointestinal transit (charcoal motility) in rats, alone or before morphine", "type": "in vivo, rat", "settings": "for Mean Motility: ratio of length of charcoal transit/total intestine length, * p<0.05 vs vehicle", "experimental": "F. et al J. Pharmacol. Exptl. Therap. 133: 400-408, 1961; D. E. Gmerek, et al J. Pharmacol. Exptl. Ther. 236: 8-13, 1986; and O. Yamamoto et al Neurogastroenterol. Motil. 10: 523-532, 1998.\nA control group of rats received 2 mL/kg of a 0.9% saline solution (n=10). After 15 minutes, rats were subcutaneously injected with saline (1 mL/kg) or morphine (3 mg/kg). A 10% suspension of activated charcoal in 0.25% methylcellulose was administered orally at 10 mL/kg to the rats 20 minutes (±2 minutes) after the subcutaneous dose of morphine or saline. The rats were euthanized 25 minutes (±3 minutes) after receiving the charcoal and the intestines were removed and lightly stretched on moist paper along a meterstick. The small intestine from pyloric sphincter to caecum was measured and the distance traveled by the charcoal as a fraction of that length was evaluated for each rat.\nStatistically significant effects were determined by ANOVA with Tukey HSD Multiple Comparison Test. Differences with p values <0.05 were considered statistically significant.\nValues for charcoal motility were expressed as a percent effect and were calculated in the following manner: The individual distance traveled by the charcoal in centimeters was divided by the total length of the intestines in centimeters (pyloric sphincter to caecum) for each rat. Mean values were calculated for each group, and the percent effect was calculated using the following formula: […]"}, "[2]": {"target": "μ-opioid receptors in the guinea pig ileum (Cavia porcellus, UniProt A0ACM8Q262)", "sequence (A0ACM8Q262 1-400)": "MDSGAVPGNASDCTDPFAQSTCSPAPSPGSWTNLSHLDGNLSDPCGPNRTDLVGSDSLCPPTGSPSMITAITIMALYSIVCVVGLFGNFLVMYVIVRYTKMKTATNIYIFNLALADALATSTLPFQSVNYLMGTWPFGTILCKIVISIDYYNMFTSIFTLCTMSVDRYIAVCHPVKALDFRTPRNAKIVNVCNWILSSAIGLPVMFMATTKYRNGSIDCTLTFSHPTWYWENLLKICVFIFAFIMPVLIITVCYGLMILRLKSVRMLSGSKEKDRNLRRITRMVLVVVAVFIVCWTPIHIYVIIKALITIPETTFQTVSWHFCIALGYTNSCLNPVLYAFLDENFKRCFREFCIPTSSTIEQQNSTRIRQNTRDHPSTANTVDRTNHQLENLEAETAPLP", "assay": "Guinea pig ileum bioassay, test for agonist activity (inhibition of electrically evoked twitch contractions)", "settings": "mean, n=2; for Response to the compound (decrease in twitch contraction amplitude): percent of control response to DAMGO 1.0E−07 M", "experimental": "Experimental Conditions. Segments of guinea pig terminal ileum were suspended in 20-ml organ baths filled with an oxygenated (95% O2 and 5% CO2) and pre-warmed (37° C.) physiological salt solution of the following composition (in mM): NaCl 118.0, KCl 4.7, MgSO4 1.2, CaCl2 2.5, KH2PO4 1.2, NaHCO3 25.0 and glucose 11.0 (pH 7.4). Additional experimental conditions were as described in Hutchinson et al. (1975) Brit. J. Pharmacol., 55: 541-546.\nIndomethacin (1 μM), nor-binaltorphimine (0.01 μM), methysergide (1 μM), ondansetron (10 μM) and GR113808 (0.1 μM) were also present throughout the experiments to prevent prostanoid release and to block the k-opioid, 5-HT2, 5-HT3 and 5-HT4 receptors, respectively. The tissues were connected to force transducers for isometric tension recordings. They were stretched to a resting tension of 1 g then allowed to equilibrate for 60 min during which time they were washed repeatedly and the tension readjusted. Thereafter, they were stimulated electrically with pulses of minimal intensity to trigger maximal contractions and 1 ms duration, delivered at 0.1 Hz by a constant current stimulator.\nTest for agonist activity. […] The different concentrations were added cumulatively and each was left in contact with the tissues until a stable response was obtained or for a maximum of 15 min.\nAnalysis and Expression of Results. The parameter measured was the maximum change in the amplitude of the electrically-evoked twitch contractions induced by each compound concentration."}, "[3]": {"target": "T1, human μ (mu, MOP) receptor (Homo sapiens, UniProt P35372)", "T1 construct": "expressed in transfected cells; host or cells: CHO cells", "T1 sequence (P35372 whole entry)": "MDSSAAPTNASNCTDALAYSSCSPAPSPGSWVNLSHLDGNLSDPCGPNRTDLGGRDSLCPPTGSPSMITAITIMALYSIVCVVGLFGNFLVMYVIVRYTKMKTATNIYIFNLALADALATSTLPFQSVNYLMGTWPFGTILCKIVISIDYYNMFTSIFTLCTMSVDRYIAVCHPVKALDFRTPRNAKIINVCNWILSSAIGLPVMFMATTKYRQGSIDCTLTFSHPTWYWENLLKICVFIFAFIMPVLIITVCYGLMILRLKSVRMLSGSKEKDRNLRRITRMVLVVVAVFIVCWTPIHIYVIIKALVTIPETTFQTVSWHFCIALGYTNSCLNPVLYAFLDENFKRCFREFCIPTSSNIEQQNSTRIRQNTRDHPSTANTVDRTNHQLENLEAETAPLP", "assay": "cAMP assay in CHO cells expressing human mu receptor, agonist assay", "type": "cell-based"}, "[4]": {"settings": "1 mg/kg sc + Morphine 3 mg/kg sc"}, "[5]": {"settings": "3 mg/kg sc + Morphine 3 mg/kg sc"}, "[6]": {"settings": "10 mg/kg sc + Morphine 3 mg/kg sc"}}, "data": [{"smiles": "CN1CC[C@]23c4c5ccc(O)c4O[C@H]2[C@@H](O)C=C[C@H]3[C@H]1C5", "note": "[Morphine, morphine]", "values": [{"measurement": "Percent Decrease", "setting": "[1]; Saline + Morphine 3 mg/kg sc", "value": 33, "unit": "%"}, {"measurement": "Mean Motility", "setting": "[1]; Saline + Morphine 3 mg/kg sc", "value": "0.407*"}, {"measurement": "effect on GI transit when administered alone", "setting": "[1]; rats, sc", "value": "decreased GI motility"}]}, {"smiles": "C[N+]1(CC2CC2)CC[C@]23c4c5ccc(O)c4O[C@H]2C(=O)CC[C@@]3(O)[C@H]1C5", "note": "(stereo partly drawn) [R-MNTX, (R)-N-methylnaltrexone]", "values": [{"measurement": "Percent Decrease", "setting": "[1]; [4]", "value": 24, "unit": "%"}, {"measurement": "Mean Motility", "setting": "[1]; [4]", "value": "0.463*"}, {"measurement": "Percent Decrease", "setting": "[1]; [5]", "value": 8, "unit": "%"}, {"measurement": "Mean Motility", "setting": "[1]; [5]", "value": 0.558}, {"measurement": "Percent Decrease", "setting": "[1]; [6]", "value": 8, "unit": "%"}, {"measurement": "Mean Motility", "setting": "[1]; [6]", "value": 0.557}, {"measurement": "Percent Decrease", "setting": "[1]; 10 mg/kg sc + Saline", "value": 6, "unit": "%"}, {"measurement": "Mean Motility", "setting": "[1]; 10 mg/kg sc + Saline", "value": 0.572}, {"measurement": "effect on GI transit in combination with / prior to morphine", "setting": "[1]; rats, sc, 15 minutes before morphine 3 mg/kg", "value": "reversed the GI slowing effect of morphine"}, {"measurement": "effect on GI transit when administered alone", "setting": "[1]; rats, sc", "value": "no effect on GI transit"}]}, {"smiles": "C[C@@H](NC(=O)[C@@H](N)Cc1ccc(O)cc1)C(=O)NCC(=O)N(C)[C@@H](Cc1ccccc1)C(=O)NCCO", "note": "[DAMGO, reference compound]", "values": [{"measurement": "Response to the compound (decrease in twitch contraction amplitude)", "setting": "[2]; 1.0E−07 M", "value": 99, "unit": "%"}, {"measurement": "Response to the compound (decrease in twitch contraction amplitude)", "setting": "[2]; 1.0E−08 M", "value": 49, "unit": "%"}, {"measurement": "Response to the compound (decrease in twitch contraction amplitude)", "setting": "[2]; 1.0E−09 M", "value": 12, "unit": "%"}, {"measurement": "Response to the compound +naloxone", "setting": "[2]; compound 1.0E−07 M + naloxone 1.0E−07 M, percent of control response to DAMGO", "value": 3, "unit": "%"}, {"measurement": "cAMP agonist assay value (Table IX.1)", "setting": "[3]; log{M} conc −4.0", "value": "−1"}, {"measurement": "cAMP agonist assay value (Table IX.1)", "setting": "[3]; log{M} conc −5.0", "value": 2}, {"measurement": "cAMP agonist assay value (Table IX.1)", "setting": "[3]; log{M} conc −6.0", "value": 1}, {"measurement": "cAMP agonist assay value (Table IX.1)", "setting": "[3]; log{M} conc −7.0", "value": 2}, {"measurement": "cAMP agonist assay value (Table IX.1)", "setting": "[3]; log{M} conc −8.0", "value": 68}, {"measurement": "cAMP agonist assay value (Table IX.1)", "setting": "[3]; log{M} conc −9.0", "value": 63}, {"measurement": "cAMP agonist assay value (Table IX.1)", "setting": "[3]; log{M} conc −10.0", "value": 88}, {"measurement": "cAMP agonist assay value (Table IX.1)", "setting": "[3]; log{M} conc −11.0", "value": 105}]}]}
